Test results from patent publication US20070254955A1, “Nail softener for use in deformed-nail corrective treatment or nail-structure modification, enclosure for external chemicals and method of correcting deformed nail” (priority 2003, published 2007).

Experiments:
ingrown nail [1] = test: Deformed-nail corrective treatment with nail softener (First Example, sufficiently grown ingrown nail); assay type: in vivo; details: nail repositioned by fingertips, immobilized with resin for one hour; FIG. 4
Text: With reference to the drawings, a deformed-nail correcting method using the nail softener according to one embodiment of the present invention will be described below. The cases of ingrown nails include one case of a sufficiently grown nail, and another case of a deep nail. While the deformed-nail correcting method using the nail softener of the present invention can be applied to both the cases, the first example will be described in conjunction with one case where the method is applied to a sufficiently grown nail. An emulsifying agent was first added to ammonium thioglycolate serving as a reducing agent to prepare a 5% (weight %) ammonium thioglycolate mail softener in the form of cream or paste. […] The number of the small through-hole may be changed according to the state of the nail, and may be, for example, two. The prepared nail softener was applied onto the entire surface of the nail at a thickness of about 5 mm, and left the nail untouched. After 25 minutes from the application of the nail softener to the nail, the state of the nail was checked. […] Thus, the nail softener was washed away and removed from the nail using a hot water. […] In order to maintain the corrected position, a resin 12 was attached onto the upper surface of the nail to close the small through-holes 10 formed in the front region of the nail (see FIG. 3). […]

ingrown nail [2] = test: Ingrown-nail correction with nail softener in enclosure plus superelastic alloy wire (Second Example, deep nail); assay type: in vivo; details: reposition by action of superelastic alloy wire
Text: With reference to the drawings, an ingrown-nail correcting method using the enclosure according to one embodiment of the present invention will be described below. As mentioned above, the cases of ingrown nails include one case of a sufficiently grown nail, and another case of a deep nail. While the deformed-nail correcting method using the enclosure of the present invention can be applied to both the cases, the second example will be described in conjunction with one case where the method is applied to a deep nail. An emulsifying agent was first added to ammonium thioglycolate serving as a reducing agent to prepare a 5% (weight %) ammonium thioglycolate mail softener in the form of cream or paste. […] The through-hole P1c was formed to fix one of the ends of a superelastic alloy wire w (see the aforementioned Patent Publication). Further, four small holes P2 serving as anchoring holes of resin r for fixing the other end of the wire were formed in the other lateral side region n2 of the nail. One of the ends of the wire w is inserted into the central through-hole p1c. Then, the wire w was folded toward the other side region n2 or a flat region, and brought into close contact with the surface of the nail. A resin r was applied onto the curved region n1 to fix one end of the wire w. An ultra-fast cure type autopolymerizing resin (GC Unifast II: trade name of GC Co.) was used as the resin. […]

Compound | result of the corrective treatment (correction of the deformed nail) (ingrown nail [1]) | result of the corrective treatment (reposition of the ingrown nail) (ingrown nail [2])
N[C@@H](CS)C(=O)O [cysteine] | substantially the same result | substantially the same result
O=C(O)CS [thioglycolic acid] | substantially the same result | substantially the same result
